Assay results published in PMC12722920, “Pharmacokinetics and pharmacodynamics of cannabigerol (CBG) in the C57BL/6Crl mouse” (Frontiers in Pharmacology, 2025).

Tests used:
[1] = set-up: method as in Newmeyer et al., 2016; conditions: ref Newmeyer et al., 2016, cited from earlier work
C57BL/6Crl mice [2] = assay: Cannabinoid tetrad: nociception by tail-flick latency; type: in vivo; conditions: for ED50: Mus musculus, iv
humans = system: humans; set-up: method as in Cuttler et al., 2024; conditions: oral 20 mg CBG; ref Cuttler et al., 2024; cited from earlier work
CD-1 mice = system: CD-1 mice; set-up: method as in Schwarz et al., 2024; conditions: 100 mg/kg i.p., not at 10 or 320 mg/kg, ref Schwarz et al., 2024, cited from earlier work
C57BL/6Crl mice [3] = assay: Cannabinoid tetrad: internal body temperature (rectal thermometer); type: in vivo; conditions: for ED50: Mus musculus, iv
C57BL/6Crl mice [4] = assay: Open field test (OFT): locomotion and anxiety-like behaviour; type: in vivo
Procedure: Catalepsy was assessed in the ring holding assay; mice were positioned with their forepaws grasping onto a 0.5 cm thick ring clamp elevated 5 cm above the testing surface. The duration of time while the ring was held was recorded in seconds, with each trial terminated if the mouse’s forepaw released from the bar, upon turning of the head or body, or after 60 s of immobility. Catalepsy was evaluated three times consecutively, and the average time spent holding the bar was reported as a percent of the maximum possible effect (% MPE, up to 60 s). Internal body temperature was measured via a rectal thermometer. Nociception was determined by assessing tail-flick latency, where mice were restrained with their tails placed ∼1 cm into 52 °C ± 2 °C water. The time (sec) until the tail was removed was measured, with observations ending at 20 s and represented as a % MPE. Locomotion and anxiety-like behaviour were assessed in the OFT. Mice were placed in an open space (90 cm × 90 cm) and recorded for 5 min. Total distance travelled (cm), velocity (cm/sec), time in the centre quadrant (sec), and central quadrant entries were measured with EthoVision XT (Noldus Information Technology Inc., Leesburg, VA).
In Phase I (Part B), after determining the timepoint at which blood CBG concentrations were highest for each respective route of administration, the timing for each measure in the tetrad was adjusted. An assessment was conducted in a new cohort consisting of both male and female mice (n = 4 per sex per route) receiving a dose of 10 mg/kg of CBG via i.v., i.p., or p.o. routes. For those administered with i.v. CBG, the timing was: catalepsy at 5 min, body temperature at 15 min, tail-flick latency at 20 min, and OFT at 25 min post-injection. For i.p. CBG, measurements were taken at 20 min for catalepsy, 25 min for body temperature, 30 min for tail-flick latency, and 35 min for OFT post-injection. For p.o. CBG, data collection was scheduled as follows: catalepsy at 170 min, body temperature at 175 min, tail-flick latency at 180 min, and OFT at 185 min post-injection.

CB1R = system: CB1R; set-up: method as in earlier work; conditions: ref El-Alfy et al., 2010; Navarro et al., 2018; Zagzoog et al., 2020; cited from earlier work
male Sprague Dawley rats = system: male Sprague Dawley rats; set-up: method as in Jenkins et al., 2023; conditions: acute oral 100 mg/kg, 30 min post-administration; ref Jenkins et al., 2023; cited from earlier work
[5] = 1, 3, 10 or 30 mg/kg i.v., male and female mice

Q: With `CCCCCc1cc(O)c(C/C=C(\C)CCC=C(C)C)c(O)c1` [CBG, cannabigerol] as the compound, how does the “detection in blood after oral cannabis” value ([1]; cannabis administered orally) read?
A: not detected

Q: What about the “time CBG was detected after smoking” value ([1]; frequent cannabis smokers) of the same compound?
A: up to 17 min

Q: And the “time CBG was detected following vaporization” value ([1]; frequent cannabis smokers)?
A: up to 13 min

Q: What about the “anti-nociceptive response in tail-flick vs vehicle” value (C57BL/6Crl mice [2]; 10 mg/kg i.v., 20 min post-administration, male and female mice) of the same compound?
A: produced an anti-nociceptive response

Q: What about the tail-flick latency (C57BL/6Crl mice [2]; 10 mg/kg i.v., i.p. and p.o., male mice, 20 min post-injection) of the same compound?
A: did not alter tail-flick latency

Q: What about the “anti-nociception, dose-response” value (C57BL/6Crl mice [2]; [5]) of the same compound?
A: produced a modest effect but only at the highest dose tested, 30 mg/kg

Q: What about the “anti-nociceptive effect (tail-flick)” value (C57BL/6Crl mice [2]; CBG given i.p.) of the same compound?
A: 10% ± 0.83%

Q: What about the ED50 (C57BL/6Crl mice [2]; 20 min, i.v., both sexes, 20 min post-administration, read-out: ED50 tail-flick latency) of the same compound?
A: > 30 mg/kg

Q: And the ED50 (C57BL/6Crl mice [2]; both sexes, read-out: ED50 tail-flick latency, estimate exceeding the dose range (square brackets))?
A: > 30 mg/kg

Q: What about the ED50 (C57BL/6Crl mice [2]; males, read-out: ED50 tail-flick latency) of the same compound?
A: > 30 mg/kg

Q: What about the “intoxication relative to THC, anti-nociception” value (C57BL/6Crl mice [2]; accounting for blood concentrations measured at 10 min, i.v.) of the same compound?
A: 3.6%

Q: And the “Intoxication ratio, tail-flick latency” value (C57BL/6Crl mice [2]; both sexes)?
A: 0.036

Q: And the “Intoxication ratio, tail-flick latency” value (C57BL/6Crl mice [2]; females)?
A: 0.038

Q: And the ED50 tail-flick latency (C57BL/6Crl mice [2]; i.v., females)?
A: > 30 mg/kg

Q: What about the “reduction in anxiety levels from baseline” value (humans) of the same compound?
A: 26.5%

Q: What about the anti-nociception (CD-1 mice; 20 min post-injection) of the same compound?
A: anti-nociception

Q: What about the hypothermia (CD-1 mice; 30 min post-injection) of the same compound?
A: resulted in hypothermia

Q: What about the “body temperature vs vehicle” value (C57BL/6Crl mice [3]; 10 mg/kg i.p. or p.o., male mice, 15 min post-injection) of the same compound?
A: significant increase in temperature

Q: What about the “body temperature vs vehicle” value (C57BL/6Crl mice [3]; 10 mg/kg, all routes (i.v. 15 min, i.p. 25 min, p.o. 175 min), male and female mice) of the same compound?
A: decreased body temperature compared to vehicle

Q: What about the “hypothermia, dose-response” value (C57BL/6Crl mice [3]; [5]) of the same compound?
A: produced a modest effect but only at the highest dose tested, 30 mg/kg

Q: What about the ED50 (C57BL/6Crl mice [3]; 0.25 h, both sexes, 15 min post-administration) of the same compound?
A: > 30 mg/kg

Q: And the ED50 (C57BL/6Crl mice [3]; males)?
A: > 30 mg/kg

Q: What about the “effect on body temperature, dose-response” value (C57BL/6Crl mice [3]; i.v., Phase II) of the same compound?
A: did not alter body temperature

Q: And the “OFT time in the center, CBG compared to THC” value (C57BL/6Crl mice [4]; 10 mg/kg i.p. or p.o.)?
A: spent significantly more time in the center

Q: And the OFT velocity (C57BL/6Crl mice [4]; 10 mg/kg i.p., CBG 35 min post-administration)?
A: reduced velocity compared to both i.p. vehicle and THC administration

Q: What about the “OFT total distance travelled” value (C57BL/6Crl mice [4]; 10 mg/kg i.p., compared to i.p. THC) of the same compound?
A: total distance travelled was reduced

Q: What about the “OFT entries to the center” value (C57BL/6Crl mice [4]; 10 mg/kg i.p., compared to vehicle) of the same compound?
A: entered the center fewer times than their vehicle-treated counterparts

Q: What about the OFT velocity (C57BL/6Crl mice [4]; 10 mg/kg i.v., 25 min post-administration, male and female mice) of the same compound?
A: reduced velocity compared to vehicle treatment

Q: And the “OFT total distance travelled” value (C57BL/6Crl mice [4]; 10 mg/kg i.v., compared to i.v. vehicle)?
A: total distance travelled was reduced

Q: What about the “OFT time in the center” value (C57BL/6Crl mice [4]; 10 mg/kg i.v., compared to the vehicle) of the same compound?
A: Time in the center was reduced

Q: And the “OFT entries to the center” value (C57BL/6Crl mice [4]; 10 mg/kg i.v., compared to vehicle)?
A: entered the center fewer times than their vehicle-treated counterparts

Q: What about the “OFT entries to the center” value (C57BL/6Crl mice [4]; 10 mg/kg p.o.) of the same compound?
A: entered the center of the OFT more times than mice given CBG i.v.

Q: And the OFT velocity (C57BL/6Crl mice [4]; 10 mg/kg p.o., CBG 185 min post-administration)?
A: reduced velocity compared to p.o. THC

Q: And the “CB1R affinity relative to THC” value (CB1R)?
A: approximately one-twentieth

Q: What about the anxiolytic effects (male Sprague Dawley rats) of the same compound?
A: did not produce anxiolytic effects
